Data published in PubChem BioAssay AID1919009 (Molecular Pharmacology Branch, DTP, NCI, 2023).
pIC50: −log10 of the molar value.

Test system: K24384-001-R-PDC complex spheroid growth
Test: Anticancer human tumor K24384-001-R-PDC patient-derived pancreatic adenocarcinoma cell line growth inhibition [AhR]
Details: for pIC50: curve of first compound; for viability, T/C: stronger effect = lower value
Summary of the method: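 Spheroids combined tumor cells with HUVEC endothelial cells and human MSCs as stroma. AhR antagonists were paired with standard or investigational drugs, each dosed in half-log steps down from near clinical Cmax, or from 10 microM where Cmax was unknown.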

[1] = second compound 0.1 µM, first compound 0.0316 µM
[2] = second compound 0.1 µM, first compound 0.1 µM
[3] = second compound 0.1 µM, first compound 0.316 µM
[4] = second compound 0.1 µM, first compound 1 µM
[5] = second compound 0.316 µM, first compound 0.0316 µM
[6] = second compound 0.316 µM, first compound 0.1 µM
[7] = second compound 0.316 µM, first compound 0.316 µM
[8] = second compound 0.316 µM, first compound 1 µM
[9] = second compound 1 µM, first compound 0.0316 µM
[10] = second compound 1 µM, first compound 0.1 µM
[11] = second compound 1 µM, first compound 0.316 µM
[12] = second compound 1 µM, first compound 1 µM
[13] = second compound 3.16 µM, first compound 0.0316 µM
[14] = second compound 3.16 µM, first compound 0.1 µM
[15] = second compound 3.16 µM, first compound 0.316 µM
[16] = second compound 3.16 µM, first compound 1 µM
[17] = second compound 10 µM, first compound 0.0316 µM
[18] = second compound 10 µM, first compound 0.1 µM
[19] = second compound 10 µM, first compound 0.316 µM
[20] = second compound 10 µM, first compound 1 µM
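For viability, T/C in this document: percent of DMSO vehicle-treated spheroid viability set as 100%.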

Q: What does the source list for CC1COCCN1c1cc(-c2ccnn2C)c2ccnc(-c3ccn[nH]3)c2n1 (stereo not given) + Cc1cncc(-c2nc(NCCc3c[nH]c4ccccc34)c3ncn(C(C)C)c3n2)c1?
A: pIC50 (second compound 0.1 µM): 7.13; pIC50 (second compound 0.316 µM): 7.03; pIC50 (second compound 1 µM): 7.04; pIC50 (second compound 3.16 µM): 7.26; pIC50 (second compound 10 µM): > 8.50; viability, T/C (second compound 0.1 µM, first compound 0.00316 µM): 88.3%; viability, T/C (second compound 0.1 µM, first compound 0.01 µM): 81.3%; viability, T/C [1]: 65.3%; viability, T/C [2]: 46.1%; viability, T/C [3]: 25.7%; viability, T/C [4]: 22.2%; viability, T/C (second compound 0.316 µM, first compound 0.00316 µM): 95.6%; viability, T/C (second compound 0.316 µM, first compound 0.01 µM): 95.8%; viability, T/C [5]: 89.1%; viability, T/C [6]: 46.4%; viability, T/C [7]: 31.8%; viability, T/C [8]: 20.5%; viability, T/C (second compound 1 µM, first compound 0.00316 µM): 94.5%; viability, T/C (second compound 1 µM, first compound 0.01 µM): 104%; viability, T/C [9]: 87.3%; viability, T/C [10]: 46.9%; viability, T/C [11]: 24.8%; viability, T/C [12]: 24.6%; viability, T/C (second compound 3.16 µM, first compound 0.00316 µM): 73%; viability, T/C (second compound 3.16 µM, first compound 0.01 µM): 88.3%; viability, T/C [13]: 69%; viability, T/C [14]: 30.1%; viability, T/C [15]: 27.3%; viability, T/C [16]: 27.7%; viability, T/C (second compound 10 µM, first compound 0.00316 µM): 7.24%; viability, T/C (second compound 10 µM, first compound 0.01 µM): 7.46%; viability, T/C [17]: 8.32%; viability, T/C [18]: 5.4%; viability, T/C [19]: 4.59%; viability, T/C [20]: 6.27%

Q: How did the pIC50 (second compound 0.1 µM) turn out when CC1COCCN1c1cc(C2(S(C)(=N)=O)CC2)nc(-c2ccnc3[nH]ccc23)n1 (stereo not given) + Cc1cncc(-c2nc(NCCc3c[nH]c4ccccc34)c3ncn(C(C)C)c3n2)c1 was run?
A: The pIC50 was 5.49.

Q: What about the pIC50 (second compound 0.316 µM) of the same molecule?
A: Its pIC50 is 5.35.

Q: And the pIC50 (second compound 1 µM)?
A: Its pIC50 is 5.32.

Q: And the pIC50 (second compound 3.16 µM)?
A: The pIC50 was 5.90.

Q: What about the pIC50 (second compound 10 µM) of the same molecule?
A: Its pIC50 is over 7.50.

Q: What about the viability, T/C [1] of the same molecule?
A: The viability, T/C was 97.7%.

Q: What about the viability, T/C [2] of the same molecule?
A: Its viability, T/C is 105%.

Q: And the viability, T/C [3]?
A: The viability, T/C was 105%.

Q: What about the viability, T/C [4] of the same molecule?
A: The viability, T/C was 84.1%.

Q: What about the viability, T/C (second compound 0.1 µM, first compound 3.16 µM) of the same molecule?
A: Its viability, T/C is 51.2%.

Q: And the viability, T/C (second compound 0.1 µM, first compound 10 µM)?
A: The viability, T/C was 32.2%.

Q: And the viability, T/C [5]?
A: Its viability, T/C is 94.7%.

Q: What about the viability, T/C [6] of the same molecule?
A: The viability, T/C was 102%.

Q: What about the viability, T/C [7] of the same molecule?
A: Its viability, T/C is 96.3%.

Q: And the viability, T/C [8]?
A: Its viability, T/C is 87.3%.

Q: And the viability, T/C (second compound 0.316 µM, first compound 3.16 µM)?
A: The viability, T/C was 58.8%.

Q: What about the viability, T/C (second compound 0.316 µM, first compound 10 µM) of the same molecule?
A: Its viability, T/C is 29.1%.

Q: What about the viability, T/C [9] of the same molecule?
A: Its viability, T/C is 116%.

Q: And the viability, T/C [10]?
A: The viability, T/C was 113%.

Q: And the viability, T/C [11]?
A: The viability, T/C was 118%.

Q: What about the viability, T/C [12] of the same molecule?
A: Its viability, T/C is 95%.

Q: What about the viability, T/C (second compound 1 µM, first compound 3.16 µM) of the same molecule?
A: The viability, T/C was 61.1%.

Q: And the viability, T/C (second compound 1 µM, first compound 10 µM)?
A: Its viability, T/C is 31.1%.

Q: What about the viability, T/C [13] of the same molecule?
A: Its viability, T/C is 80.6%.

Q: And the viability, T/C [14]?
A: Its viability, T/C is 74.8%.

Q: And the viability, T/C [15]?
A: The viability, T/C was 70%.

Q: And the viability, T/C [16]?
A: Its viability, T/C is 52%.

Q: What about the viability, T/C (second compound 3.16 µM, first compound 3.16 µM) of the same molecule?
A: Its viability, T/C is 37.8%.

Q: What about the viability, T/C (second compound 3.16 µM, first compound 10 µM) of the same molecule?
A: The viability, T/C was 25.9%.

Q: What about the viability, T/C [17] of the same molecule?
A: Its viability, T/C is 10.3%.

Q: And the viability, T/C [18]?
A: Its viability, T/C is 11.3%.

Q: What about the viability, T/C [19] of the same molecule?
A: The viability, T/C was 11.8%.

Q: What about the viability, T/C [20] of the same molecule?
A: Its viability, T/C is 11.8%.

Q: And the viability, T/C (second compound 10 µM, first compound 3.16 µM)?
A: Its viability, T/C is 8.29%.

Q: What about the viability, T/C (second compound 10 µM, first compound 10 µM) of the same molecule?
A: Its viability, T/C is 10.9%.
